pIC50: −log10 of the molar value.

The target of the assay is BTK (Homo sapiens (Human), UniProt Q06187). As to the kind of experiment: Btk kinase assay (HTRF). Format: biochemical. Particulars: [ATP]=80 μM, BTK=3.4 nM; read-out: BTK Inhibition. Here is the method: Btk kinase activity was determined using a homogenous time resolved fluorescence (HTRF) methodology. Measurements were performed in a reaction volume of 15 μL using 384-well assay plates. Kinase enzyme, inhibitor, ATP and 1 μM peptide substrate were incubated in a reaction buffer compose of Hepes 50 mM (pH7.0), NaN3 0.02%, BSA 0.01%, Orthocanadate 0.1 mM. After one hour, the kinase reaction was quenched by the addition of […] antibody and XL-665 in 1× Detection buffer containing 60 mM EDTA (Cisbio), and the mixture was allowed to incubate for one hour. The HTRF signal was measured on a multimode plate reader (EnVision® Multilabel Reader, Perkin Elmer) with an excitation wavelength (λEx) of 330 nm and detection wavelengths (λEm) of 615 and 665 nrm. Activity was determined by the ratio of the fluorescence at 665 nm to that at 615 nm. For each compound, enzyme activity as measured at various concentrations of compound, Negative control reactions were performed in the absence of inhibitor in two replicates and eight no enzyme controls were used to determine baseline fluorescence levels. IC50s were obtained according to the equation: […] For BTK assay, [ATP]=80 μM, BTK=3.4 nM.
Chain of BTK (Q06187 whole entry, species assumed): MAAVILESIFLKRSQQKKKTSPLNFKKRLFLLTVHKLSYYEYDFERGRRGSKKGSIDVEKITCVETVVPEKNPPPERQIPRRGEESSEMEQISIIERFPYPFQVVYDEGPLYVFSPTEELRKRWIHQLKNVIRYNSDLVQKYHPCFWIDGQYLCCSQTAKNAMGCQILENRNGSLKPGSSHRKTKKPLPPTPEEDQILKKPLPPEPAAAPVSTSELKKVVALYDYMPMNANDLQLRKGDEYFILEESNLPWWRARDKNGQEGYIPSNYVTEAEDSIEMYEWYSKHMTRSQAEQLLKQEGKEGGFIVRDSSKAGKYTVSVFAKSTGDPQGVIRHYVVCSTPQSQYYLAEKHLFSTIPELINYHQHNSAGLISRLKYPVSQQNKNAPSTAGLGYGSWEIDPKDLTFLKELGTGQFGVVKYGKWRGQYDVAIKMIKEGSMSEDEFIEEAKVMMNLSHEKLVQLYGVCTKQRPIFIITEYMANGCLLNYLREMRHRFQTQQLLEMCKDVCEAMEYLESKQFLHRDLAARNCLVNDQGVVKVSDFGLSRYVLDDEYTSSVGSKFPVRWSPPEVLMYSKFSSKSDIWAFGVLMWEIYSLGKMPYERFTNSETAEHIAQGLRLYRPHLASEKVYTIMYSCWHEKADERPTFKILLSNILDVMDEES
(In TR-FRET formats the signal depends on donor and acceptor labels being close together.)
Regarding `O=C(/C=C/c1ccccc1)Nc1cccc(-n2c(=O)n(-c3ccc(Oc4ccccc4)cc3)c3cnccc32)c1` [Example 109, N-(3-(2-oxo-3-(4-phenoxyphenyl)-2,3-dihydro-1H-imidazo[4,5-c]pyridin-1-yl)phenyl)cinnamamide], the pIC50 is at most 5.00.
With `C=CC(=O)Nc1cccc(-n2c(=O)n(-c3cccc(NC(=O)c4ccc(C(C)(C)C)cc4)c3)c3cnccc32)c1` [Example 260, N-(3-(1-(3-acrylamidophenyl)-2-oxo-1H-imidazo[4,5-c]pyridin-3(2H)-yl)phenyl)-4-(tert-butyl)benzamide] the figure was 7.00 to 8.00; with `C=CC(=O)N1CC[C@@H](n2c(=O)n(-c3ccc(Oc4ccccc4)cc3)c3cnccc32)C1` [Example 33, (R)-1-(1-acryloylpyrrolidin-3-yl)-3-(4-phenoxyphenyl)-1H-imidazo[4,5-c]pyridin-2(3H)-one], 7.00 to 8.00; with `C=CC(=O)N1CC[C@@H](n2c(=O)n(-c3ccc(Oc4cccc(OC)c4)c(F)c3)c3cnccc32)C1` [Example 53, (R)-1-(1-acryloylpyrrolidin-3-yl)-3-(3-fluoro-4-(3-methoxyphenoxy)phenyl)-1H-imidazo[4,5-c]pyridin-2(3H)-one], 7.00 to 8.00.
For `C=CC(=O)N1CC[C@@H](n2c(=O)n(-c3ccc(Oc4cccnc4)cc3)c3cnccc32)C1` [Example 68, (R)-1-(1-acryloylpyrrolidin-3-yl)-3-(4-(pyridin-3-yloxy)phenyl)-1H-imidazo[4,5-c]pyridin-2(3H)-one] the value was 6.00 to 7.00; for `C=CC(=O)Nc1cccc(-n2c(=O)n(-c3ccc(OCc4cccc(Cl)c4)cc3)c3cnccc32)c1` [Example 230, N-(3-(3-(4-((3-chlorobenzyl)oxy)phenyl)-2-oxo-2,3-dihydro-1H-imidazo[4,5-c]pyridin-1-yl)phenyl)acrylamide], 7.00 to 8.00.
With `C=CC(=O)N1CC[C@@H](n2c(=O)n(-c3ccc(Oc4ccccc4)cc3)c3c(N)cccc32)C1` [Example 190, (R)-1-(1-acryloylpyrrolidin-3-yl)-4-amino-3-(4-phenoxyphenyl)-1H-benzo[d]imidazol-2(3H)-one] the figure was 6.00 to 7.00.
On to `C=CC(=O)Nc1cccc(-n2c(=O)n(-c3cccc(Oc4ccccc4OC)c3)c3cnccc32)c1` [Example 89, N-(3-(3-(3-(2-methoxyphenoxy)phenyl)-2-oxo-2,3-dihydro-1H-imidazo[4,5-c]pyridin-1-yl)phenyl)acrylamide], for which the pIC50 was 7.00 to 8.00.
For `C=CC(=O)N1CC[C@@H](n2c(=O)n(-c3ccc(Oc4cccc(C5CC5)c4)cc3)c3cnccc32)C1` [Example 10, (R)-1-(1-acryloylpyrrolidin-3-yl)-3-(4-(3-cyclopropylphenoxy)phenyl)-1H-imidazo[4,5-c]pyridin-2(3H)-one], the pIC50 was 6.00 to 7.00.
With `C=CC(=O)Nc1cccc(-n2c(=O)n(-c3ccc(Oc4ccccc4)cc3)c3ncccc32)c1` [Example 119, N-(3-(2-oxo-3-(4-phenoxyphenyl)-2,3-dihydro-1H-imidazo[4,5-b]pyridin-1-yl)phenyl)acrylamide] the figure was 5.00 to 6.00; with `C=CC(=O)N1CC[C@@H](n2c(=O)n(-c3ccc(Oc4cccc(Cl)c4F)c(F)c3)c3cnccc32)C1` [Example 101, (R)-1-(1-acryloylpyrrolidin-3-yl)-3-(4-(3-chloro-2-fluorophenoxy)-3-fluorophenyl)-1,3-dihydro-2H-imidazo[4,5-c]pyridin-2-one], 7.00 to 8.00; with `C=CC(=O)Nc1cccc(-n2c(=O)n(-c3ccc(Oc4cccc(OC)c4)c(F)c3)c3cnccc32)c1` [Example 94, N-(3-(3-(3-fluoro-4-(3-methoxyphenoxy)phenyl)-2-oxo-2,3-dihydro-1H-imidazo[4,5-c]pyridin-1-yl)phenyl)acrylamide], 7.00 to 8.00.
With `C=CC(=O)N1CC[C@@H](n2c(=O)n(-c3ccc(Oc4cccc(OC)c4Cl)cc3)c3cnccc32)C1` [Example 135, (R)-1-(1-acryloylpyrrolidin-3-yl)-3-(4-(2-chloro-3-methoxyphenoxy)phenyl)-1H-imidazo[4,5-c]pyridin-2(3H)-one] the figure was 7.00 to 8.00.
For `C=CC(=O)N1CC[C@@H](n2c(=O)n(-c3ccc(Oc4cccc(OC(C)C)c4)c(F)c3)c3cnccc32)C1` [Example 52, (R)-1-(1-acryloylpyrrolidin-3-yl)-3-(3-fluoro-4-(3-isopropoxyphenoxy)phenyl)-1H-imidazo[4,5-c]pyridin-2(3H)-one] the value was 6.00 to 7.00; for `C=CC(=O)N1CC[C@@H](n2c(=O)n(-c3ccc(Oc4cccc(OCC)c4)cc3)c3cnccc32)C1` [Example 24, (R)-1-(1-acryloylpyrrolidin-3-yl)-3-(4-(3-ethoxyphenoxy)phenyl)-1H-imidazo[4,5-c]pyridin-2(3H)-one], 7.00 to 8.00; for `C=CC(=O)Nc1cccc(-n2c(=O)n(-c3ccc(OCc4ccc(F)cc4)cc3)c3cnccc32)c1` [Example 247, N-(3-(3-(4-((4-fluorobenzyl)oxy)phenyl)-2-oxo-2,3-dihydro-1H-imidazo[4,5-c]pyridin-1-yl)phenyl)acrylamide], 7.00 to 8.00.
Turning to `C=CC(=O)N1CCC[C@@H](n2c(=O)n(-c3ccc(Oc4cccc(OC)c4F)cc3)c3cncc(C)c32)C1` [Example 168, (R)-1-(1-acryloylpiperidin-3-yl)-3-(4-(2-fluoro-3-methoxyphenoxy)phenyl)-7-methyl-1H-imidazo[4,5-c]pyridin-2(3H)-one], the pIC50 was at least 8.00.
For `C=CC(=O)N1CC[C@@H](n2c(=O)n(-c3ccc(-c4ccc(Cl)cc4Cl)cc3)c3cnccc32)C1` [Example 275] the value was at most 5.00; for `C=CC(=O)N1CCC[C@@H](n2c(=O)n(-c3ccc(Oc4cccc(OC)c4C)cc3)c3cnccc32)C1` [Example 142, (R)-1-(1-acryloylpiperidin-3-yl)-3-(4-(3-methoxy-2-methylphenoxy)phenyl)-1H-imidazo[4,5-c]pyridin-2(3H)-one], 7.00 to 8.00.
For `C=CC(=O)Nc1cccc(-n2c(=O)n(-c3ccc(C(=O)N4CCOCC4)cc3)c3cnccc32)c1` [Example 253, N-(3-(3-(4-(morpholine-4-carbonyl)phenyl)-2-oxo-2,3-dihydro-1H-imidazo[4,5-c]pyridin-1-yl)phenyl)acrylamide] the value was 5.00 to 6.00.
For `C=CC(=O)Nc1cccc(-n2c(=O)n(-c3cccc(Oc4ccccc4C)c3)c3cnccc32)c1` [Example 88, N-(3-(2-oxo-3-(3-(o-tolyloxy)phenyl)-2,3-dihydro-1H-imidazo[4,5-c]pyridin-1-yl)phenyl)acrylamide] the value was 7.00 to 8.00; for `C=CC(=O)N1CC[C@@H](n2c(=O)n(-c3ccc(OCc4ccccc4)cc3)c3cnccc32)C1` [Example 246], 6.00 to 7.00; for `C=CC(=O)Nc1cccc(-n2c(=O)n(-c3ccc(Oc4cccc(Cl)c4)c(F)c3)c3cnccc32)c1` [Example 50], 6.00 to 7.00.
For the compound `C=CC(=O)N1CC[C@@H](n2c(=O)n(-c3ccc(Oc4ccc(F)cc4)cc3)c3cnccc32)C1` [Example 81, (R)-1-(1-acryloylpyrrolidin-3-yl)-3-(4-(4-fluorophenoxy)phenyl)-1H-imidazo[4,5-c]pyridin-2(3H)-one], the pIC50 is 6.00 to 7.00.
For `C=CC(=O)Nc1cccc(-n2c(=O)n(-c3ccc(OCc4ccccc4C(F)(F)F)cc3)c3cnccc32)c1` [Example 232, N-(3-(2-oxo-3-(4-((2-(trifluoromethyl)benzyl)oxy)phenyl)-2,3-dihydro-1H-imidazo[4,5-c]pyridin-1-yl)phenyl)acrylamide], the pIC50 was 7.00 to 8.00.
For `C=CC(=O)Nc1cccc(-n2c(=O)n(-c3ccc(C(=O)NCc4ccc(F)cc4)cc3)c3cnccc32)c1` [Example 249, 4-(1-(3-acrylamidophenyl)-2-oxo-1H-imidazo[4,5-c]pyridin-3(2H)-yl)-N-(4-fluorobenzyl)benzamide] the value was 7.00 to 8.00.
For `C=CC(=O)N1CC[C@@H](n2c(=O)n(-c3ccc(NC(=O)c4ccc(OC)c(C(F)(F)F)c4)cc3)c3cnccc32)C1` [Example 268, (R)-N-(4-(1-(1-acryloylpyrrolidin-3-yl)-2-oxo-1H-imidazo[4,5-c]pyridin-3(2H)-yl)phenyl)-4-methoxy-3-(trifluoromethyl)benzamide] the value was 6.00 to 7.00; for `C=CC(=O)N1CC[C@@H](n2c(=O)n(-c3ccc(OCc4ccc(F)cc4F)cc3)c3cnccc32)C1` [Example 199, (R)-1-(1-acryloylpyrrolidin-3-yl)-3-(4-((2,4-difluorobenzyl)oxy)phenyl)-1H-imidazo[4,5-c]pyridin-2(3H)-one], 6.00 to 7.00; for `C=CC(=O)N1CC[C@@H](n2c(=O)n(-c3ccc(Oc4cc(Cl)cc(OC)c4)cc3)c3cnccc32)C1` [Example 9, (R)-1-(1-acryloylpyrrolidin-3-yl)-3-(4-(3-chloro-5-methoxyphenoxy)phenyl)-1H-imidazo[4,5-c]pyridin-2(3H)-one], 7.00 to 8.00.
With `C=CC(=O)N1CCC[C@@H](n2c(=O)n(-c3ccc(Oc4cccc(Cl)c4OC)cc3)c3cnccc32)C1` [Example 64, (R)-1-(1-acryloylpiperidin-3-yl)-3-(4-(3-chloro-2-methoxyphenoxy)phenyl)-1H-imidazo[4,5-c]pyridin-2(3H)-one] the figure was 6.00 to 7.00; with `C=CC(=O)N1CCC[C@@H](n2c(=O)n(-c3ccc(Oc4cccc(F)c4OC)cc3)c3cnccc32)C1` [Example 140, (R)-1-(1-acryloylpiperidin-3-yl)-3-(4-(3-fluoro-2-methoxyphenoxy)phenyl)-1H-imidazo[4,5-c]pyridin-2(3H)-one], 6.00 to 7.00.
